From patent publication US12600709B2, “Nonpeptide somatostatin type 5 receptor agonists and uses thereof” (Crinetics Pharmaceuticals, Inc., priority 2019, dated 2026) come the findings set out here.

Experiment [1] concerns the target T1, human somatostatin receptor subtype 2 (Homo sapiens, UniProt P30874).
T1 construct: expressed in transfected cells
Description: cAMP assay for SST2R (inhibition of cAMP in CHO-K1 cells). It counts as cell-based. Particulars: Table B; inhibition of cAMP via human SST2 receptor; read-out: SST2 potency. The method, boiled down: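 Agonism read as decrease in NKH477 (1.6 μM)-stimulated cAMP: compounds applied 20 min, 37° C, with 0.2 mM IBMX, to CHO-K1 stably expressing human SSTR2. cAMP quantified in lysates by time-resolved fluorescence (HTRF kit, 1-24 h RT), standard-curve regression, then EC50.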
(In general: cAMP levels reflect the balance of adenylyl cyclase and phosphodiesterase activity.)

Experiment [2] has as its target T2, human somatostatin receptor subtype 5 (Homo sapiens, UniProt P35346).
T2 construct: expressed in transfected cells
As to the kind of experiment: cAMP assay for SST5R (inhibition of cAMP in CHO-K1 cells). Format: cell-based. To be noted: for EC50: inhibition of cAMP via human SST5 receptor, read-out: SST5 potency; for Fold selectivity for SST5 vs SST2: class symbols, SST5 receptor over SST2 receptor. The method, boiled down:
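CHO-K1 cells stably expressing human SSTR5 were treated 20 min at 37 °C with compounds plus 1.6 μM NKH477 in HBSS, 0.5 mM HEPES pH 7.4, 0.1% BSA, 0.2 mM IBMX. Lysate cAMP measured by HTRF against a standard curve; EC50 from cAMP-versus-concentration plots.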

Read-outs that look alike come from different tables or passages of the source. Bounds are passed on as bounds.

T1 sequence (P30874 whole entry): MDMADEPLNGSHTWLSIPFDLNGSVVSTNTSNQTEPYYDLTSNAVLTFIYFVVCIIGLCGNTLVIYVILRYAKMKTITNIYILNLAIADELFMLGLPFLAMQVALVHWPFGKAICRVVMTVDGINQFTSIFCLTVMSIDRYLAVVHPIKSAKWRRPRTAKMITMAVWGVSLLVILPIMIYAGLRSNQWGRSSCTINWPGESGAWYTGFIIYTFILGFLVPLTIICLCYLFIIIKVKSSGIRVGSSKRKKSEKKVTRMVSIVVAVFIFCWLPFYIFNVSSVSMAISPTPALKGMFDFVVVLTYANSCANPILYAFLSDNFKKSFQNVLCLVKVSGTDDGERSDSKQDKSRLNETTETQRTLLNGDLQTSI
T2 sequence (P35346 whole entry): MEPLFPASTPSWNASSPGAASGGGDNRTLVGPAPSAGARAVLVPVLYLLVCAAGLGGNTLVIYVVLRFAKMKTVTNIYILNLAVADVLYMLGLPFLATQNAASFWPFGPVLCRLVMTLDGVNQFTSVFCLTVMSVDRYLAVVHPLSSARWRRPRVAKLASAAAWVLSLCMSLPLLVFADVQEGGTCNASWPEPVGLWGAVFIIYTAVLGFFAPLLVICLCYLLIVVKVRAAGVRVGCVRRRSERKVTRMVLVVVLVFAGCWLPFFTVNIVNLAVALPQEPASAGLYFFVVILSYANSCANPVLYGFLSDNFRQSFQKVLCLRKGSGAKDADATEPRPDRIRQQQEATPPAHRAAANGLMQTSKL

As for `CCC(CC)NC(=O)c1cnc(C#N)c(-c2ccnc(OC)c2)c1N1CC[C@](C)(N)C1` [1-253, 4-[(3S)-3-amino-3-methylpyrrolidin-1-yl]-2-cyano-2′-methoxy-N-(pentan-3-yl)-[3,4′-bipyridine]-5-carboxamide], the values for the EC50 in experiment [1], in experiment [2] (Table A) and in experiment [2] (Table B) were 100 to 1000 nM, under 10 nM and under 10 nM, respectively. Besides, in experiment [2] (Table B), the “Fold selectivity for SST5 vs SST2” value is listed as “+++ (+++=>500)”.
Consider `CCC(CC)NC(=O)c1cncc(-c2cc(F)cc(F)c2)c1N1CC[C@](C)(N)C1` [1-31, 4-[(3S)-3-amino-3-methylpyrrolidin-1-yl]-5-(3,5-difluorophenyl)-N-(pentan-3-yl)pyridine-3-carboxamide], for which the EC50 in experiment [1] was 100 to 1000 nM; in experiment [2] (Table A), under 10 nM; in experiment [2] (Table B) it was under 10 nM. The “Fold selectivity for SST5 vs SST2” value in experiment [2] (Table B) is reported as “++ (++=100 to 499)”.
On to `C[C@H](NC(=O)c1cnc(OCCCC(=O)O)c(-c2cc(F)cc(F)c2)c1N1CC[C@](C)(N)C1)C1CC1` [1-265, 4-({4-[(3S)-3-amino-3-methylpyrrolidin-1-yl]-5-{[(1S)-1-cyclopropylethyl]carbamoyl}-3-(3,5-difluorophenyl)pyridin-2-yl}oxy)butanoic acid], for which the EC50 is over 1000 nM in experiment [1], under 10 nM in experiment [2] (Table A) and under 10 nM in experiment [2] (Table B). Further, in experiment [2] (Table B), the “Fold selectivity for SST5 vs SST2” value is given as “+++ (+++=>500)”.
As to `COc1ncc(C(=O)N[C@@H](C)C2CC2)c(N2CC[C@](C)(N)C2)c1-c1cc(F)cc(Cl)c1` [1-229, 4-[(3S)-3-amino-3-methylpyrrolidin-1-yl]-5-(3-chloro-5-fluorophenyl)-N-[(1S)-1-cyclopropylethyl]-6-methoxypyridine-3-carboxamide], the EC50 is 10 to 100 nM in experiment [1], under 10 nM in experiment [2] (Table A) and under 10 nM in experiment [2] (Table B). Further, in experiment [2] (Table B), the “Fold selectivity for SST5 vs SST2” value is recorded as “+++ (+++=>500)”.
Regarding `COc1ncc(C(=O)NCc2ccon2)c(N2CC[C@](C)(N)C2)c1-c1cc(F)cc(Cl)c1` [1-238, 4-[(3S)-3-amino-3-methylpyrrolidin-1-yl]-5-(3-chloro-5-fluorophenyl)-6-methoxy-N-[(1,2-oxazol-3-yl)methyl]pyridine-3-carboxamide], the EC50 in experiment [1] was 100 to 1000 nM; in experiment [2] (Table A), under 10 nM; in experiment [2] (Table B), under 10 nM. Further, the “Fold selectivity for SST5 vs SST2” value in experiment [2] (Table B) is given as “+++ (+++=>500)”.
As for `C[C@H](NC(=O)c1cnc(C(F)(F)F)c(-c2cc(F)cc(Cl)c2)c1N1CC[C@H](N)C1)C1CC1` [1-198, 4-[(3S)-3-aminopyrrolidin-1-yl]-5-(3-chloro-5-fluorophenyl)-N-[(1S)-1-cyclopropylethyl]-6-(trifluoromethyl)pyridine-3-carboxamide], the EC50 in experiment [1] is 10 to 100 nM; in experiment [2] (Table A), under 10 nM; in experiment [2] (Table B), under 10 nM. The “Fold selectivity for SST5 vs SST2” value in experiment [2] (Table B) is given as “++ (++=100 to 499)”.
Regarding `N#Cc1ncc(C(=O)NC2CCCCC2)c(N2CC[C@H](N)C2)c1-c1cc(F)cc(F)c1` [1-81, 4-[(3S)-3-aminopyrrolidin-1-yl]-6-cyano-N-cyclohexyl-5-(3,5-difluorophenyl)pyridine-3-carboxamide], the EC50 in experiment [1] was 100 to 1000 nM; in experiment [2] (Table A) it was under 10 nM; in experiment [2] (Table B), under 10 nM. In addition, the “Fold selectivity for SST5 vs SST2” value in experiment [2] (Table B) is “+++ (+++=>500)”.
Regarding `Cc1ncc(C(=O)N[C@@H](C)C(F)(F)F)c(N2CC[C@](C)(N)C2)c1-c1ccc(F)c(F)c1` [1-279, 4-[(3S)-3-amino-3-methylpyrrolidin-1-yl]-5-(3,4-difluorophenyl)-6-methyl-N-[(2S)-1,1,1-trifluoropropan-2-yl]pyridine-3-carboxamide], the figures for the EC50 in experiment [1], in experiment [2] (Table A) and in experiment [2] (Table B) were 100 to 1000 nM, under 10 nM and under 10 nM, respectively. Besides, the “Fold selectivity for SST5 vs SST2” value in experiment [2] (Table B) is given as “+++ (+++=>500)”.
As to `Cc1ncc(C(=O)N[C@@H](C)C(F)(F)F)c(N2CC[C@H](N)C2)c1-c1cc(F)cc(F)c1` [1-230, 4-[(3S)-3-aminopyrrolidin-1-yl]-5-(3,5-difluorophenyl)-6-methyl-N-[(2S)-1,1,1-trifluoropropan-2-yl]pyridine-3-carboxamide], the results for the EC50 in experiment [1], in experiment [2] (Table A) and in experiment [2] (Table B) were 100 to 1000 nM, under 10 nM and under 10 nM, respectively. Moreover, the “Fold selectivity for SST5 vs SST2” value in experiment [2] (Table B) was “++ (++=100 to 499)”.
For `N[C@H]1CCN(c2c(C(=O)NC3CCCCC3)cnc(C(F)(F)F)c2-c2cc(F)cc(F)c2)C1` [1-213, 4-[(3S)-3-aminopyrrolidin-1-yl]-N-cyclohexyl-5-(3,5-difluorophenyl)-6-(trifluoromethyl)pyridine-3-carboxamide], the EC50 in experiment [1] is 100 to 1000 nM; in experiment [2] (Table A), under 10 nM; in experiment [2] (Table B) it was under 10 nM. For the same molecule, the “Fold selectivity for SST5 vs SST2” value in experiment [2] (Table B) was “+++ (+++=>500)”.
Take `Cc1ncc(-c2c(C#N)ncc(C(=O)N[C@@H](C)C3CC3)c2N2CC[C@](C)(N)C2)s1` [1-128, 4-[(3S)-3-amino-3-methylpyrrolidin-1-yl]-6-cyano-N-[(1S)-1-cyclopropylethyl]-5-(2-methyl-1,3-thiazol-5-yl)pyridine-3-carboxamide]: the EC50 was 100 to 1000 nM in experiment [1], under 10 nM in experiment [2] (Table A) and under 10 nM in experiment [2] (Table B). The “Fold selectivity for SST5 vs SST2” value in experiment [2] (Table B) was “+++ (+++=>500)”.
With `Cc1cc(C)cc(NC(=O)c2cncc(-c3cc(C)cc(C)c3)c2N2CC[C@@H](N)C2)c1` (single isomer, unassigned) [1-2], the EC50 is under 10 nM in experiment [1], 10 to 100 nM in experiment [2] (Table A) and 10 to 100 nM in experiment [2] (Table B).
Take `COc1ncc(C(=O)NCc2ccon2)c(N2CC[C@](C)(N)C2)c1-c1cc(F)cc(OC(F)F)c1` [1-239, 4-[(3S)-3-amino-3-methylpyrrolidin-1-yl]-5-[3-(difluoromethoxy)-5-fluorophenyl]-6-methoxy-N-[(1,2-oxazol-3-yl)methyl]pyridine-3-carboxamide]: the results for the EC50 in experiment [1], in experiment [2] (Table A) and in experiment [2] (Table B) were over 1000 nM, under 10 nM and under 10 nM, respectively. The “Fold selectivity for SST5 vs SST2” value in experiment [2] (Table B) is given as “+++ (+++=>500)”.
For the molecule `CCC1(NC(=O)c2cncc(-c3cc(C)cc(F)c3)c2N2CC[C@](C)(N)C2)CCC1` [1-19, 4-[(3S)-3-amino-3-methylpyrrolidin-1-yl]-N-(1-ethylcyclobutyl)-5-(3-fluoro-5-methylphenyl)pyridine-3-carboxamide], the EC50 in experiment [1] was 100 to 1000 nM; in experiment [2] (Table A) it was under 10 nM; in experiment [2] (Table B), under 10 nM. Further, the “Fold selectivity for SST5 vs SST2” value in experiment [2] (Table B) is recorded as “++ (++=100 to 499)”.
`COc1ncc(C(=O)N[C@@H](C)C2CC2)c(N2CC[C@](C)(N)C2)c1-c1cncc(Cl)c1` [1-167, 4-[(3S)-3-amino-3-methylpyrrolidin-1-yl]-5′-chloro-N-[(1S)-1-cyclopropylethyl]-2-methoxy-[3,3′-bipyridine]-5-carboxamide]: the EC50 is over 1000 nM in experiment [1], under 10 nM in experiment [2] (Table A) and under 10 nM in experiment [2] (Table B). Besides, the “Fold selectivity for SST5 vs SST2” value in experiment [2] (Table B) is recorded as “+++ (+++=>500)”.
`Cc1cc(C)cc(NC(=O)c2cncc(-c3ccnc(C)c3)c2N2CC[C@](C)(N)C2)c1` [1-6, 4-[(3S)-3-amino-3-methylpyrrolidin-1-yl]-N-(3,5-dimethylphenyl)-2′-methyl-[3,4′-bipyridine]-5-carboxamide]: the results for the EC50 in experiment [1], in experiment [2] (Table A) and in experiment [2] (Table B) were 10 to 100 nM, under 10 nM and under 10 nM, respectively. Moreover, in experiment [2] (Table B), the “Fold selectivity for SST5 vs SST2” value was “++ (++=100 to 499)”.
As to `C[C@H](NC(=O)c1cnc(OCC2CC2)c(-c2cc(F)cc(F)c2)c1N1CC[C@](C)(N)C1)C1CC1` [1-178, 4-[(3S)-3-amino-3-methylpyrrolidin-1-yl]-N-[(1S)-1-cyclopropylethyl]-6-(cyclopropylmethoxy)-5-(3,5-difluorophenyl)pyridine-3-carboxamide], the EC50 is 10 to 100 nM in experiment [1], under 10 nM in experiment [2] (Table A) and under 10 nM in experiment [2] (Table B). Besides, the “Fold selectivity for SST5 vs SST2” value in experiment [2] (Table B) is recorded as “+++ (+++=>500)”.
